Measured values from US20240238248A1, “PHARMACEUTICAL COMPOSITION FOR USE IN TREATING CEREBRAL INFARCTION” (Ji Xing Pharmaceuticals Hong Kong Limited, priority 2021, published 2024).
Like-named read-outs stand apart in the source and are kept apart here.

Assays:
[1] = Plasma pharmacokinetics in rats (repeated-dose study); assay type: in vivo; conditions: rat, iv, male rats, 12 mg/kg-dose group, initial day of repeated-dose study, average
Method: (§1) Rats (12 males and 12 females) under neither anesthesia nor unrestrained condition were repeatedly and intravenously given TMS-007 (preparation of a sodium-salt thereof) at a dose of 2.4, 12 and 60 mg/kg (continuously over 30 minutes) once daily for two weeks. The day after completion of repeated administration, the rats were subjected to autopsy. As a result, NOAEL of the toxicity test of rats by repeated administration was determined to be 60 mg/kg or more.
(§2) Cmax and AUC0-24 values when TMS-007 was administered to rats and monkeys were as follows.

[2] = Toxicity test by two-week repeated administration to cynomolgus monkeys; conditions: both sexes, cynomolgus monkey, in vivo, male and female, intravenous over 30 minutes once daily for two weeks, 3, 10 and 30 mg/kg
Method: (§3) Cynomolgus monkey (3 males per group and 3 females per group) under neither anesthesia nor unrestrained condition were repeatedly and intravenously given TMS-007 (preparation of a sodium-salt thereof) at a dose of 3, 10 and 30 mg/kg (continuously over 30 minutes) once daily for two weeks. The day after completion of repeated administration, the monkeys were subjected to autopsy. As a result, NOAEL of the toxicity test of cynomolgus monkeys by repeated administration was determined to be 10 mg/kg or more in both male and female groups.

[3] = Toxicity test by two-week repeated administration to rats; conditions: both sexes, rat, in vivo, intravenous over 30 minutes once daily for two weeks, 2.4, 12 and 60 mg/kg
Method: as §1

[4] = system: cerebral infarction patients observed to have occlusion; test: Phase II single dose study: recanalization rate evaluated by MRA; assay type: in vivo, human; conditions: TMS-007 administration group vs placebo group
Method: (§4) To patients with acute cerebral infarction within 12 hours after onset, TMS-007 (SMTP-7 sodium salt preparation)) or a placebo were administered intravenously once (bolus over 1 minute+continuous injection over 30 minutes). The ratio of number of patients to which an active drug (TMS-007 sodium salt preparation) is to be administered relative to the number of patients to which a placebo is to be administered is set at 2:1 in the first and second cohorts and 1:1 in the third cohort as shown in Table 1 below.
(§5) • Safety (e.g., extracranial hemorrhage, major hemorrhage) up to Day 7 after administration • Symptomatic intracranial hemorrhage and non-symptomatic intracranial hemorrhage within 24 hours after administration • Value of mRS on Day 90 after administration • A rate of recanalization observed in an MRA image of 24 hours after administration • PK (concentration of unchanged form of TMS-007, Cmax, AUC) when TMS-007 was administered
The recanalization rate was evaluated by MRA. Patients (39 cases) observed to have occlusion at the time of enrollment and observed to be “canalized” or “partially canalized” on Day 2 were evaluated as recanalization cases. The ratio of the recanalization cases was 14/[…] cases (58.3%) in the TMS-007 administration groups and 4/15 cases (26.7%) in the placebo group. […]

[5] = Phase II single dose study: pharmacokinetics (plasma TMS-007 concentration); assay type: in vivo, human; conditions: for concentration at 31 min / concentration at 2 h: human, plasma, intravenous, patients, read-out: plasma TMS-007 concentration (mean±standard deviation); for concentration at 31 min: 31 minutes after administration; for concentration at 2 h: 2 hours after the administration
Method: as §4, §5
In the PK analysis set, the dose groups except the placebo group were subjected to counting/analysis. The plasma TMS-007 concentrations (original scale value, mean±standard deviation) of the TMS-007 (1, 3, 6 mg/kg) groups (hereinafter described in the same order) 31 minutes after administration of a study drug were 7.294±1.472, 29.28±8.425 and 52.19±12.76 μg/mL, respectively; the plasma TMS-007 concentrations 2 hours after the administration were 0.1379±0.09777, 0.8970±0.5752 and 3.033±2.924 μg/mL, respectively. With respect to the plasma concentration value (logarithmic conversion value) of a study drug 31 minutes after initiation of administration, difference between doses was evaluated by one-way ANOVA using a dose as a factor. As a result, p value was less than 0.0001 and difference was statistically significant
When the dose proportionality of plasma TMS-007 concentration of the investigational new drug 31 minutes after initiation of administration, was evaluated, a point estimation value (two-sided 95% confidence interval) of slope (b) of a regression equation of power model was 1.042 (0.895-1.189). From this, linearity of TMS-007 in the dose range of 1 to 6 mg/kg was confirmed (see, FIG. 11).

[6] = system: mice, rats and monkeys; test: Pharmacological tests using mice, rats and monkeys; assay type: in vivo; conditions: dose of 1 to 10 mg/kg
Method: as §2

[7] = Phase I test for healthy persons: pharmacokinetics; assay type: in vivo, human; conditions: for Cmax / AUC(0-t): iv; for AUC(0-t): read-out: AUC0-24 (converted)
Method: (§6) Phase I test (placebo-control randomized double-blind test) for healthy adult males was carried out. Five cohorts each was constituted of 8 persons (active drug was administered to 6 person and a placebo was administered to 2 person) were used in the test. TMS-007 (SMTP-7 sodium salt preparation) or a placebo was administered intravenously once at a dose of 0.05, 0.25, 1, 3, and 6 mg/kg (equivalent) over 31 minutes (bolus over 1 minute+continuous administration over 30 minutes). The subjects determined to be eligible by a screening test were hospitalized the day before administration. Day 3 from completion of administration, the subjects were allow to leave the hospital. Day 7 from completion of administration, post (follow-up) examination was carried out for safety, tolerance and PK in the period up to Day 7.

[8] = system: healthy adult males; test: Phase I test for healthy persons: safety and tolerance; assay type: in vivo, human
Method: as §6

[9] = Plasma pharmacokinetics in monkeys (extended single-dose and repeated-dose study); assay type: in vivo; conditions: monkey, iv, male monkeys, 10 mg/kg-dose group, extended single-dose study and repeated-dose study (first day), average
Method: as §3, §2

[10] = system: cerebral infarction patients; test: Phase II single dose study for cerebral infarction patients: safety; assay type: in vivo
Method: (§7) Randomized, double blind, placebo control, single dose, intravenous administration, parallel between groups and dose escalation regimen
(§8) Cerebral infarction patients within 12 hours from onset are used as subjects. Test subjects (90 patients: first cohort: 9, second cohort: 27, third cohort: 54) are determined in accordance with the following selection criteria and exclusion criteria.
To patients with acute cerebral infarction within 12 hours after onset, TMS-007 (SMTP-7 sodium salt preparation)) or a placebo were administered intravenously once (bolus over 1 minute+continuous injection over 30 minutes).
The frequency of occurrence of symptomatic intracranial hemorrhage with NIHSS score worsening of 4 or more points up to 24 hours after administration of TMS-007

[11] = system: cerebral infarction patients; test: Phase II single dose study: mRS on Day 90 after administration; assay type: in vivo, human; conditions: for Odds ratio, rate of obtaining outcome of mRS0-2: Day 90 after administration
Method: as §7, §8, §4, §5
In the FAS group, to mRS evaluation of individual dose groups (mRS 0-1 is assigned 1, mRS 2-6 is assigned 0) Day 90 after administration (Day 90), a logistic model using response, dose groups (TMS-007-combined group and placebo group), mRS on the base line, NIHSS score, age, blood pressure (systolic blood pressure) as explanatory variables was applied, odds ratio and 95% confidence interval of the TMS-007-combined group relative to the placebo group were estimated. The same estimation was carried out by using TMS-007 dose groups as the dose groups relative to the placebo group. More specifically, the odds ratios of individual TMS-007 dose groups relative to the placebo group and 95% confidence interval were estimated.

[12] = male, human, blood, 0.05 mg/kg single i.v. over 31 minutes
[13] = male, human, blood, 0.25 mg/kg single i.v. over 31 minutes
[14] = male, human, blood, 1 mg/kg single i.v. over 31 minutes
[15] = male, human, blood, 3 mg/kg single i.v. over 31 minutes
[16] = male, human, blood, 6 mg/kg single i.v. over 31 minutes
[17] = TMS-007 combined group to placebo group, Day 90, FAS

CC(C)=CCC/C(C)=C/CC[C@]1(C)Oc2c(c(O)cc3c2CN(CCC[C@@H](C(=O)O)N2Cc4c(cc(O)c5c4O[C@@](C)(CC/C=C(\C)CCC=C(C)C)[C@@H](O)C5)C2=O)C3=O)C[C@@H]1O [TMS-007, (S)-2,5-bis((2S,3S)-2-((E)-4,8-dimethylnona-3,7-dien-1-yl)-3,5-dihydroxy-2-methyl-7-oxo-3,4,7,9-tetrahydropyrano[2,3-e]isoindol-8(2H)-yl)pentanoic acid]
Cmax [1]: 20200 ng/mL | AUC(0-t) ([1]; read-out: AUC0-24 (converted)): 25700 ng·h/mL | NOAEL at 2 weeks [2]: ≥ 10 mg/kg | NOAEL at 2 weeks [3]: ≥ 60 mg/kg | odds ratio of recanalization [4]: 4.23 | concentration at 31 min ([5]; 1 mg/kg): 7290 ± 1470 ng/mL | concentration at 2 h ([5]; 1 mg/kg): 138 ± 97.8 ng/mL | concentration at 31 min ([5]; 3 mg/kg): 29300 ± 8420 ng/mL | concentration at 2 h ([5]; 3 mg/kg): 897 ± 575 ng/mL | concentration at 31 min ([5]; 6 mg/kg): 52200 ± 12800 ng/mL | concentration at 2 h ([5]; 6 mg/kg): 3030 ± 2920 ng/mL | slope (b) of regression equation of power model, dose proportionality (two-sided 95% confidence interval) ([5]; plasma concentration 31 minutes after initiation of administration, 1 to 6 mg/kg): 1.042 (0.895-1.189) | medicinal effects [6]: reduction of the area of infarction and improvement of neurological symptoms | Unchanged form of TMS-007 in urine ([7]; any one of the cohorts): not observed | time of peak blood concentration ([7]; immediately after completion of administration, all cohorts): 31 min | half-life ([7]; male, human, blood, intravenous, regardless of the dose (0.05-6 mg/kg), read-out: half-lives in blood): 10 to 15 min | Cmax [7, 12]: 346 ng/mL | AUC(0-t) [7, 12]: 252 ng·h/mL | Cmax [7, 13]: 1860 ± 150 ng/mL | AUC(0-t) [7, 13]: 1380 ng·h/mL | Cmax [7, 14]: 6700 ng/mL | AUC(0-t) [7, 14]: 5020 ng·h/mL | Cmax [7, 15]: 20300 ng/mL | AUC(0-t) [7, 15]: 16000 ng·h/mL | Cmax [7, 16]: 49900 ± 5200 ng/mL | AUC(0-t) [7, 16]: 38800 ng·h/mL | Adverse events observed ([8]; single i.v. 0.05-6 mg/kg): all non-serious/mild/restorability | indication of hemorrhagic risk ([8]; single i.v. dose-escalation trial): not observed | Cmax [9]: 45800 to 58600 ng/mL | AUC(0-t) ([9]; read-out: AUC0-24): 32200 to 40200 ng·h/mL | occurrence of major hemorrhage ([10]; human, in vivo): not observed | symptomatic intracranial hemorrhage ([10]; human, in vivo): not observed | frequencies of adverse event, serious adverse event, side effect, serious side effect, adverse event leading to discontinuation vs placebo (Fisher's exact test) ([10]; individual TMS-007 groups and combined group, up to Day 90): not statistically significant | symptomatic intracranial hemorrhage with NIHSS score worsening of 4 or more points ([10]; up to 24 hours after administration, safety analysis set, TMS-007 groups (1, 3, 6 mg/kg)): not observed | Estimated value (logistic model, dose group) for mRS 0-1 ([11]; 1 mg/kg to placebo group, Day 90, FAS): −2.425 | Odds ratio, rate of obtaining outcome of mRS0-2 ([11]; 1 mg/kg): 0.292 | Estimated value (logistic model, dose group) for mRS 0-1 ([11]; 3 mg/kg to placebo group, Day 90, FAS): −0.726 | Odds ratio, rate of obtaining outcome of mRS0-2 ([11]; 3 mg/kg): 0.585 | Estimated value (logistic model, dose group) for mRS 0-1 ([11]; 6 mg/kg to placebo group, Day 90, FAS): −1.207 | Odds ratio, rate of obtaining outcome of mRS0-2 ([11]; 6 mg/kg): 0.506 | Estimated value (logistic model, dose group) for mRS 0-1 [11, 17]: −1.206 | Odds ratio of mRS (mRS 0 and 1 assigned 1, mRS 2-6 assigned 0) [11, 17]: 0.299 | Odds ratio, rate of obtaining outcome of mRS0-2 ([11]; TMS-007 combined group): 0.500
